Where two headings read alike, the source gives them in different places.
Experiments:
E. coli gyrase = molecular target: T1, E. coli gyrase (Escherichia coli, UniProt P0AES4+P0AES6); test: Gyrase supercoiling (inhibition) assay; type: biochemical
T1 construct: purchased Inspiralis (Norwich, UK)
Procedure: To test the anti-gyrase activity of cystobactamides, commercial E. coli gyrase supercoiling kits (Inspiralis) were used.
For IC50 determination the band intensity of the supercoiled plasmid was determined using Adobe Photoshop, plotted vs. [cystobactamide] and fitted using Hill's equation.
All natural products stock solutions and dilutions were prepared in 100% DMSO and added to the supercoiling reactions giving a final DMSO concentration of 5% (v/v).
(§1) Following natural product concentrations were used in the assay:
Control reactions were: no enzyme and a standard reaction in presence of 5% (v/v) DMSO.
All reaction samples were equilibrated for 10 minutes at room-temperature in the absence of DNA. Then the relaxed plasmid was added to start the reaction.
To determine IC50 values, the formation of supercoiled (gyrase) or relaxed (topoisomerase I, II IV) plasmid was quantified using Adobe Photoshop (Histogram mode). […] All determined IC50 values are the averages of three independent experiments.

E. coli topoisomerase IV = molecular target: T2, E. coli topoisomerase IV (Escherichia coli, UniProt P0AFI2+P20083); test: Topoisomerase IV relaxation (inhibition) assay; type: biochemical
T2 construct: purchased Inspiralis (Norwich, UK)
T2 sequence (P20083 whole entry): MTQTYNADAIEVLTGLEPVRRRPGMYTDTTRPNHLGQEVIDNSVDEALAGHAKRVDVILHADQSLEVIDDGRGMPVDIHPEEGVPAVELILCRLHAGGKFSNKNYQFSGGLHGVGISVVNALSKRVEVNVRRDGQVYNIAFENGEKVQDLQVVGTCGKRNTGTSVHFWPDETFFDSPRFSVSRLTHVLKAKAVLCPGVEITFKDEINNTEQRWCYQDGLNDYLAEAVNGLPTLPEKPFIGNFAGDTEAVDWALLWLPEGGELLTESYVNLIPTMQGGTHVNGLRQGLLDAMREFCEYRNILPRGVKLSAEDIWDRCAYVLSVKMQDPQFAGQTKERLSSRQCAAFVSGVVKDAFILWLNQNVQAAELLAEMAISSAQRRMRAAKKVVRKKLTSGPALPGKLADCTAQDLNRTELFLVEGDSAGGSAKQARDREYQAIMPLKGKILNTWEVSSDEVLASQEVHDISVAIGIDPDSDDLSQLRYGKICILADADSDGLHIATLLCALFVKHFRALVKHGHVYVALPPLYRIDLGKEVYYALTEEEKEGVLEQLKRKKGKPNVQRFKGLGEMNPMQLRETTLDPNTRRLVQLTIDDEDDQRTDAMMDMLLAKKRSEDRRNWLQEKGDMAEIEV
T2 sequence (P0AFI2 whole entry): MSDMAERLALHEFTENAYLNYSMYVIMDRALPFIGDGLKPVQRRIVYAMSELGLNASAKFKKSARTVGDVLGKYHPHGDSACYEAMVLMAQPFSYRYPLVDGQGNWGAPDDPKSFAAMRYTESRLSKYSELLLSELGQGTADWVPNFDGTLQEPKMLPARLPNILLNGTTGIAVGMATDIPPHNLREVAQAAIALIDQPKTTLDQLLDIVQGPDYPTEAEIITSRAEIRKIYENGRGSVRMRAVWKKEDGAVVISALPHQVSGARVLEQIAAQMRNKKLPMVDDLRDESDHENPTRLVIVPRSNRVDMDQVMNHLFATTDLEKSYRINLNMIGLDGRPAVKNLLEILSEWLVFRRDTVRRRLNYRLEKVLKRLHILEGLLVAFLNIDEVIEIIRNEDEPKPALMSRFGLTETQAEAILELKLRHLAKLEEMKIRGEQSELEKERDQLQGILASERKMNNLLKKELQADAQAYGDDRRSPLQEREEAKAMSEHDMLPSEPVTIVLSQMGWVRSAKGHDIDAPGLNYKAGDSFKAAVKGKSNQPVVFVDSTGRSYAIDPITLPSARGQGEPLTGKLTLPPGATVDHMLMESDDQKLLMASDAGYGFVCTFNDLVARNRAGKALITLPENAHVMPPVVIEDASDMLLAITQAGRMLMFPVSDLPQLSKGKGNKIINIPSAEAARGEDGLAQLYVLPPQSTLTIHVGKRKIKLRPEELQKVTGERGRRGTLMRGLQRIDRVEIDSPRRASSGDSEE
Procedure: Prokaryotic DNA gyrase and topoisomerase IV share a high degree of homology and gyrase inhibitors typically show a topoisomerase IV inhibitory activity.^8 To test the influence of the cystobactamides on topoisomerase IV a commercial E. coli topoisomerase IV kit (Inspiralis) was used.
The topo IV reactions were titrated with varying concentrations of A-D and resolved by agarose gel electrophoresis. For IC50 determination the band intensity of the supercoiled plasmid was determined using Adobe Photoshop, plotted vs. [cystobactamide] and fitted using Hill's equation.
as §1
(§2) Control reactions were: no enzyme and a standard reaction in presence of 5% (v/v) DMSO. All reaction samples were equilibrated for 10 minutes at room-temperature in the absence of DNA. Then the relaxed plasmid was added to start the reaction.
(§3) To determine IC50 values, the formation of supercoiled (gyrase) or relaxed (topoisomerase I, II IV) plasmid was quantified using Adobe Photoshop (Histogram mode). Plotting of these values versus the compound concentration yielded sigmoidal shaped curves, which were fitted using Hill's equation (Origin Pro 8.5). All determined IC50 values are the averages of three independent experiments.

[1] = molecular target: T3, H. sapiens topoisomerase II (Homo sapiens, UniProt P11388); test: Topoisomerase II relaxation (inhibition) assay; type: biochemical; details: read-out: IC50, human topo II
T3 construct: purchased Inspiralis (Norwich, UK)
Procedure: The topo II reactions were titrated with varying concentrations of A-D and resolved by agarose gel electrophoresis. For IC50 determination the band intensity of the supercoiled plasmid was determined using Adobe Photoshop, plotted vs. [cystobactamide] and fitted using Hill's equation.
as §1, §2, §3

[2] = molecular target: T4, H. sapiens topoisomerase I (Homo sapiens, UniProt P11387); test: Topoisomerase I relaxation (inhibition) assay; type: biochemical
T4 construct: purchased Inspiralis (Norwich, UK)
T4 sequence (P11387 1-765): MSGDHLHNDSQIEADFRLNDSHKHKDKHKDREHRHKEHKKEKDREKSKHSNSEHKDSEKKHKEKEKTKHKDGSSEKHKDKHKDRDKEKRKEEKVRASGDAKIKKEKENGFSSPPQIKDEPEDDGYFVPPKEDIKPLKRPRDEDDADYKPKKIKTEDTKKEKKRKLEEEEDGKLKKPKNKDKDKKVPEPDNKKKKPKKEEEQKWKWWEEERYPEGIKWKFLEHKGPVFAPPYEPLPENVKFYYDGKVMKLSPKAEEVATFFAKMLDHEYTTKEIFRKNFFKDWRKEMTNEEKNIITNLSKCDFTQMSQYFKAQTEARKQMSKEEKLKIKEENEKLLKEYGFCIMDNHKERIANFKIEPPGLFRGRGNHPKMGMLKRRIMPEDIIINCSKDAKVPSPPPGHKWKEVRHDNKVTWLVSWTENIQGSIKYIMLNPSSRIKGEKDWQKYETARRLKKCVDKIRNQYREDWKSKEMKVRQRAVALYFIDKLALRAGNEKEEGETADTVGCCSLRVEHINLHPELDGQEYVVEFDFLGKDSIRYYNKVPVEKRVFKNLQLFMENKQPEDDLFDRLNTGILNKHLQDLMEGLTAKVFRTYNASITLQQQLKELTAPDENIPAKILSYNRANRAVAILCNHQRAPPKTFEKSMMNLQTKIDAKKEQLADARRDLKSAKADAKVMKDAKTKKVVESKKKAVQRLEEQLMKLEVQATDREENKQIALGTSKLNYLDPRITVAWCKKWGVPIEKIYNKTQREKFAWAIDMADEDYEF
Procedure: Aside the ATP-dependent type IIa topoisomerases like E. coli gyrase, topoIV and human topoII, the activity of cystobactamides on the ATP-independent human topoisomerase I was tested as well.
The topo I reactions were titrated with varying concentrations of A-D and resolved by agarose gel electrophoresis. For IC50 determination the band intensity of the supercoiled plasmid was determined using Adobe Photoshop, plotted vs. [cystobactamide] and fitted using Hill's equation.
as §1
Cystobactamide C: 300 μM; 30 μM; 3 μM
Control reactions were: no enzyme and a standard reaction in presence of 5% (v/v) DMSO. All reaction samples were equilibrated for 10 minutes at room-temperature in the absence of DNA. Then the relaxed plasmid was added to start the reaction
as §3

DNA/gyrase complex = DNA/gyrase complex (Escherichia coli, UniProt P0AES4+P0AES6); details: cystobactamide D 18 μM, ciprofloxacin 1 μM
DNA/gyrase complex, sequence (P0AES4 whole entry, one chain of several): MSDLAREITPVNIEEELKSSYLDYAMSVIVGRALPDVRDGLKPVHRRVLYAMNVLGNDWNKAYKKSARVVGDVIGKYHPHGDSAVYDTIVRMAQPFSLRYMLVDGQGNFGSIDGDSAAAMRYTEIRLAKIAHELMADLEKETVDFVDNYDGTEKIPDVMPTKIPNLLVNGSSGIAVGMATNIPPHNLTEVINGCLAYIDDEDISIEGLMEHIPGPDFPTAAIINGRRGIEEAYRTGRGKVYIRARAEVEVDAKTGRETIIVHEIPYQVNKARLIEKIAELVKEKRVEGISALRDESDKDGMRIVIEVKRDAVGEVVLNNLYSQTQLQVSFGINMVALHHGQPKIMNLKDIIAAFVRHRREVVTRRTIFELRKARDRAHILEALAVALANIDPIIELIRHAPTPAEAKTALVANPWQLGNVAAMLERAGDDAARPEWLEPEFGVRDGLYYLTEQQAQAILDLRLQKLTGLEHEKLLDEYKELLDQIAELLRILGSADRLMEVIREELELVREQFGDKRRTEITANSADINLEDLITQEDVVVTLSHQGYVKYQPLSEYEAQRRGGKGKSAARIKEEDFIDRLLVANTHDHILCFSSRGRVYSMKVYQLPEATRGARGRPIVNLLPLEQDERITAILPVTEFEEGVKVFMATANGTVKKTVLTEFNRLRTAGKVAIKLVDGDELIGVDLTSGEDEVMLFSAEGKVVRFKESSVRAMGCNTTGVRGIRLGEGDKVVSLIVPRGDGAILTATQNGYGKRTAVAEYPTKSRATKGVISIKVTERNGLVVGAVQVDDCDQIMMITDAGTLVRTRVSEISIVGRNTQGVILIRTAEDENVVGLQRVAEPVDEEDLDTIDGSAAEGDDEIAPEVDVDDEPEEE
Procedure: (§4) (B) Here, standard gyrase reactions were inhibited using a constant amount of cystobactamide D and titrated with increasing amounts of ATP. If ATP and cystobactamide D would compete for binding at the ATP binding pocket on the gyrase GyrB subunit, increasing amounts of ATP would lead to the formation of supercoiled plasmid in the assay.
To test if cystobactamides stabilize the covalent complex between DNA gyrase and the nicked DNA substrate, proteinase K linearization assay were performed (see a). […] To detect linearized plasmid bands the relaxed plasmid was digested by the single-cutting restriction enzyme Ndel.

[3] = molecular target: ATP binding pocket on GyrB of E. coli gyrase (Escherichia coli, UniProt P0AES4+P0AES6); details: constant cystobactamide D; ATP up to 10 mM (2000 fold cystobactamide concentration)
ATP binding pocket on GyrB of E. coli gyrase, sequence (P0AES4 whole entry, one chain of several): as above
From the text: as §4
To test if cystobactamides compete with ATP for binding to the ATP binding pocket on GyrB, standard gyrase supercoiling assays (see a) with varying ATP concentrations were performed. Standard reaction mixes (1 mM ATP) were supplemented with ATP (0.5M ATP stock solution, ATP was purchased from Sigma-Aldrich) to final ATP concentrations of 2.5; 5 and 10 mM. All reactions were performed in triplicates.

T1 sequence (P0AES4 whole entry, one chain of several): as above

## COc1cc(C(=O)O)ccc1NC(=O)c1ccc(NC(=O)c2ccc(NC(=O)C(NC(=O)c3ccc(NC(=O)c4ccc([N+](=O)[O-])cc4)cc3)C(OC)C(N)=O)cc2)c(OC)c1O (stereo not shown) [cystobactamide D]
E. coli gyrase; E. coli gyrase 20.5 nM eq. 1 unit, read-out: apparent IC50, E. coli gyrase
  IC50: 1 µM
E. coli gyrase; E. coli gyrase, read-out: IC50 gyrase
  IC50: 0.7 µM
E. coli gyrase; table, averages of three independent experiments, read-out: IC50 in the Gyrase inhibition assay
  IC50: 0.7 µM
E. coli topoisomerase IV; E. coli topoisomerase IV, read-out: IC50 Topo IV
  IC50: 10 µM
E. coli topoisomerase IV; averages of three independent experiments, read-out: IC50 in the E. coli Topoisomerase IV inhibition assay
  IC50: 10 µM
E. coli topoisomerase IV; topo IV vs. gyrase
  ratios IC50(topo IV)/IC50(gyrase): ~14
[1]
  IC50: 41.2 µM
[2]
  IC50: ~33.6 µM
DNA/gyrase complex
  formation of linearized plasmid after proteinase K treatment: formation of linearized plasmid
[3]
  regain of gyrase activity on titration with ATP: the gyrase activity is not regained
